The test addresses T1, recombinant human Muscarinic M1 receptor (Homo sapiens, UniProt P11229).
T1 construct: expressed in transfected cells
T1 sequence (P11229 1-460): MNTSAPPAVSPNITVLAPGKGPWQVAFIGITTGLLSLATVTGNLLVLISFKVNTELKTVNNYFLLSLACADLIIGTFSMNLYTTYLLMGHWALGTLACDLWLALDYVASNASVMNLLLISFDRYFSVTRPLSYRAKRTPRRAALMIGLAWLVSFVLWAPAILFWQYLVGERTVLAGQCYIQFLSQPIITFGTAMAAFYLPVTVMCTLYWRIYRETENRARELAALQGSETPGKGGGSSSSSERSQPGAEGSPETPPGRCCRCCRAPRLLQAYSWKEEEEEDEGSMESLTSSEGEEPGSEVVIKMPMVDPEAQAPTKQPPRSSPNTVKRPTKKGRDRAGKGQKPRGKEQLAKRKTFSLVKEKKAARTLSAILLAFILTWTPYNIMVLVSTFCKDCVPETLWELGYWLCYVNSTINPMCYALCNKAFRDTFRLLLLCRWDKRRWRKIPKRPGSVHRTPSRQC
Put plainly: Allosteric potency EC50 for Muscarinic M1 receptor, CHO pCRE-Luc reporter assay with EC20 of acetylcholine. Format: cell-based. To be noted: CHO cells, in presence of EC20 of acetylcholine, 4 hours. As to the method:
Determination of Allosteric Potency EC50 Values for Muscarinic M1 Receptor:
A stable CHO cell line expressing recombinant human Muscarinic M1 receptor and pCRE-Luc reporter system was used for cell-based assay. The assay offers a non-radioactive based approach to determine binding of a compound to GPCRs. In this specific assay, the level of intracellular cyclic AMP which is modulated by activation or inhibition of the receptor is measured. The recombinant cells harbor luciferase reporter gene under the control of cAMP response element.
The above cells were grown in 96 well clear bottom white plates in Hams F12 medium containing 10% fetal bovine serum (FBS). Prior to the addition of compounds or standard agonist, cells were serum starved overnight. Increasing concentrations of test compounds were added along with EC20 of acetylcholine in OptiMEM medium to the cells. The incubation was continued at 37° C. in CO2 incubator for 4 hours. Medium was removed and cells were washed with phosphate buffered saline. The cells were lysed and luciferase activity was measured in a Luminometer. Luminescence counts in each concentrations of test item were normalized to the acetylcholine induced maximum response and the data was analyzed using Graphpad software. EC50 values of the compounds were defined as the concentration required in stimulating the luciferase activity by 50% in presence of EC20 of acetylcholine.
Regarding `O=C(N[C@H]1CCCC[C@@H]1O)c1cc(Cc2ccc(Br)cc2)c2cccnn12` [Example 1, N-(cis-1S,2S-2-Hydroxycyclohexyl)-5-(4-bromobenzyl)-pyrrolo[1,2-b]pyridazine-7-carboxamide], the EC50 is 1.47 µM. Then `O=C(N[C@H]1CCCC[C@@H]1O)c1cc(Cc2cc(Br)ccc2F)c2cccnn12` [Example 2, N-(cis-1S,2S-2-Hydroxycyclohexyl)-5-(5-bromo-2-fluorobenzyl)-pyrrolo[1,2-b]pyridazine-7-carboxamide], with 0.419 µM; and `O=C(N[C@H]1CCCC[C@@H]1O)c1cc(Cc2ccc(Br)nc2)c2cccnn12` [Example 5, N-(cis-1S,2S-2-Hydroxycyclohexyl)-5-(2-bromo-pyridin-5-ylmethyl)-pyrrolo[1,2-b]pyridazine-7-carboxamide], with 2.13 µM. With `COc1cccc(Cc2cc(C(=O)N[C@H]3CCCC[C@@H]3O)n3ncccc23)c1` [Example 6, N-(cis-1S,2S-2-Hydroxycyclohexyl)-5-(3-methoxybenzyl)-pyrrolo[1,2-b]pyridazine-7-carboxamide], the EC50 was 3.03 µM.

Consider `O=C(N[C@H]1CCCC[C@@H]1O)c1cc(Cc2ccc(F)cc2F)c2cccnn12` [Example 7, N-(cis-1S,2S-2-Hydroxycyclohexyl)-5-(2,4-difluorobenzyl)-pyrrolo[1,2-b]pyridazine-7-carboxamide], for which the EC50 was 0.779 µM. With `O=C(N[C@H]1CCCC[C@@H]1O)c1cc(Cc2ccc(F)cc2)c2cccnn12` [Example 8, N-(cis-1S,2S-2-Hydroxycyclohexyl)-5-(4-fluorobenzyl)-pyrrolo[1,2-b]pyridazine-7-carboxamide], the EC50 came to 0.863 µM. With `O=C(N[C@H]1CCCC[C@@H]1O)c1cc(Cc2cccc(F)c2F)c2cccnn12` [Example 9, N-(cis-1S,2S-2-Hydroxycyclohexyl)-5-(2,3-difluorobenzyl)-pyrrolo[1,2-b]pyridazine-7-carboxamide] the figure was 2.11 µM; with `COc1ccc(Cc2cc(C(=O)N[C@H]3CCCC[C@@H]3O)n3ncccc23)cc1F` [Example 10, N-(cis-1S,2S-2-Hydroxycyclohexyl)-5-(3-fluoro-4-methoxybenzyl)-pyrrolo[1,2-b]pyridazine-7-carboxamide], 1.22 µM. With `O=C(N[C@H]1CCCC[C@@H]1O)c1cc(Cc2ccnc(Cl)c2)c2cccnn12` [Example 11, N-(cis-1S,2S-2-Hydroxycyclohexyl)-5-(2-chloro-pyridin-4-ylmethyl)-pyrrolo[1,2-b]pyridazine-7-carboxamide] the figure was 1.3 µM; with `COc1cc(Cc2cc(C(=O)N[C@H]3CCCC[C@@H]3O)n3ncccc23)ccc1F` [Example 12, N-(cis-1S,2S-2-Hydroxycyclohexyl)-5-(4-fluoro-3-methoxybenzyl)-pyrrolo[1,2-b]pyridazine-7-carboxamide], 1.34 µM. Then `O=C(N[C@H]1CCCC[C@@H]1O)c1cc(Cc2ccccc2F)c2cccnn12` [Example 13, N-(cis-1S,2S-2-Hydroxycyclohexyl)-5-(2-fluorobenzyl)-pyrrolo[1,2-b]pyridazine-7-carboxamide], with 1.76 µM; and `COc1ccc(Cc2cc(C(=O)N[C@H]3CCCC[C@@H]3O)n3ncccc23)c(F)c1` [Example 14, N-(cis-1S,2S-2-Hydroxycyclohexyl)-5-(2-fluoro-4-methoxybenzyl)-pyrrolo[1,2-b]pyridazine-7-carboxamide], with 1.08 µM. On to `O=C(N[C@H]1CCCC[C@@H]1O)c1cc(Cc2ccc(F)c(F)c2)c2cccnn12` [Example 15, N-(cis-1S,2S-2-Hydroxycyclohexyl)-5-(3,4-difluorobenzyl)-pyrrolo[1,2-b]pyridazine-7-carboxamide], for which the EC50 amounted to 1.51 µM. Regarding `O=C(N[C@H]1CCCC[C@@H]1O)c1cc(Cc2ccc(Cl)nc2)c2cccnn12` [Example 16, N-(cis-1S,2S-2-Hydroxycyclohexyl)-5-(2-chloro-pyridin-5-ylmethyl)-pyrrolo[1,2-b]pyridazine-7-carboxamide], the EC50 was 2.77 µM. In the case of `O=C(NC1CCOCC1)c1cc(Cc2ccc(Cl)nc2)c2cccnn12` [Example 17, N-(Tetrahydropyran-4-yl)-5-(2-chloropyridin-5-ylmethyl)-pyrrolo[1,2-b]pyridazine-7-carboxamide], the EC50 was determined as 10 µM. Then `COc1cccc(Cc2cc(C(=O)N[C@H]3CCCC[C@@H]3O)n3ncccc23)c1F` [Example 18, N-(cis-1S,2S-2-Hydroxycyclohexyl)-5-(2-fluoro-3-methoxybenzyl)-pyrrolo[1,2-b]pyridazine-7-carboxamide], with 3.72 µM; and `O=C(N[C@H]1CCCC[C@@H]1O)c1cc(Cc2cccc(F)c2)c2cccnn12` [Example 19, N-(cis-1S,2S-2-Hydroxycyclohexyl)-5-(3-fluorobenzyl)-pyrrolo[1,2-b]pyridazine-7-carboxamide], with 2.1 µM.

Turning to `O=C(NC1CCOCC1)c1cc(Cc2ccc(-n3cccn3)cc2)c2cccnn12` [Example 22, N-(Tetrahydropyran-4-yl)-5-(4-pyrazol-1-ylbenzyl)-pyrrolo[1,2-b]pyridazine-7-carboxamide], the EC50 turned out to be 1.76 µM. Regarding `O=C(N[C@H]1CCCC[C@@H]1O)c1cc(Cc2ccc(-c3cscn3)cc2)c2cccnn12` [Example 23, N-(cis-1S,2S-2-Hydroxycyclohexyl)-5-(4-thiazol-4-ylbenzyl)-pyrrolo[1,2-b]pyridazine-7-carboxamide], the EC50 worked out at 0.119 µM. Then `O=C(N[C@H]1CCCC[C@@H]1O)c1cc(Cc2ccc(F)cc2Br)c2cccnn12` [Example 24, N-(cis-1S,2S-2-Hydroxycyclohexyl)-5-(2-bromo-4-fluorobenzyl)-pyrrolo[1,2-b]pyridazine-7-carboxamide], with 1.18 µM. Then `O=C(N[C@H]1CCCC[C@@H]1O)c1cc(Cc2ccc(Br)c(F)c2F)c2cccnn12` [Example 25, N-(cis-1S,2S-2-Hydroxycyclohexyl)-5-(2,3-difluoro-4-bromobenzyl)-pyrrolo[1,2-b]pyridazine-7-carboxamide], with 2.29 µM; and `O=C(N[C@H]1CCCC[C@@H]1O)c1cc(Cc2ccc(F)c(Br)c2)c2cccnn12` [Example 26, N-(cis-1S,2S-2-Hydroxycyclohexyl)-5-(3-bromo-4-fluorobenzyl)-pyrrolo[1,2-b]pyridazine-7-carboxamide], with 0.643 µM; and `O=C(N[C@H]1CCCC[C@@H]1O)c1cc(Cc2cccc(Br)c2)c2cccnn12` [Example 27, N-(cis-1S,2S-2-Hydroxycyclohexyl)-5-(3-bromobenzyl)-pyrrolo[1,2-b]pyridazine-7-carboxamide], with 1.7 µM. In the case of `O=C(N[C@H]1CCCC[C@@H]1O)c1cc(Cc2cccnc2Cl)c2cccnn12` [Example 28, N-(cis-1S,2S-2-Hydroxycyclohexyl)-5-(2-chloropyridin-3-ylmethyl)-pyrrolo[1,2-b]pyridazine-7-carboxamide], the EC50 came to 10 µM. With `O=C(N[C@H]1CCCC[C@@H]1O)c1cc(Cc2ccnc(Br)c2)c2cccnn12` [Example 29, N-(cis-1S,2S-2-Hydroxycyclohexyl)-5-(2-bromopyridin-4-ylmethyl)-pyrrolo[1,2-b]pyridazine-7-carboxamide] the figure was 1.01 µM; with `O=C(NC1CCOCC1O)c1cc(Cc2cccc(F)c2)c2cccnn12` (stereo not drawn) [Example 30, N-(3-Hydroxytetrahydropyran-4-yl)-5-(3-fluorobenzyl)-pyrrolo[1,2-b]pyridazine-7-carboxamide], 1.65 µM; with `O=C(NC1CCOCC1O)c1cc(Cc2ccc(Br)cc2)c2cccnn12` (stereo not drawn) [Example 31, N-(3-Hydroxytetrahydropyran-4-yl)-5-(4-bromobenzyl)-pyrrolo[1,2-b]pyridazine-7-carboxamide], 1.03 µM. With `Cn1cc(-c2ccc(Cc3cc(C(=O)N[C@H]4CCCC[C@@H]4O)n4ncccc34)cn2)cn1` [Example 35, N-(cis-1S,2S-2-Hydroxycyclohexyl)-5-[6-(1-methyl-1H-pyrazol-4-yl)-pyridin-3-ylmethyl]-pyrrolo[1,2-b]pyridazine-7-carboxamide] the figure was 0.599 µM; with `Cn1cc(-c2ccc(Cc3cc(C(=O)N[C@H]4CCCC[C@@H]4O)n4ncccc34)c(F)c2F)cn1` [Example 36, N-(cis-1S,2S-2-Hydroxycyclohexyl)-5-[2,3-difluoro-4-(1-methyl-1H-pyrazol-4-yl)-benzyl]-pyrrolo[1,2-b]pyridazine-7-carboxamide], 0.094 µM; with `Cn1cc(-c2cc(Cc3cc(C(=O)N[C@H]4CCCC[C@@H]4O)n4ncccc34)ccc2F)cn1` [Example 37, N-(cis-1S,2S-2-Hydroxycyclohexyl)-5-[4-fluoro-3-(1-methyl-1H-pyrazol-4-yl)-benzyl]-pyrrolo[1,2-b]pyridazine-7-carboxamide], 1 µM.
